The format of data set [1] is physicochemical. How it is done:
Degradation of Dettide on in vitro release from an extruded polymer depot
A solution of McIlvaine's citric acid-phosphate buffer solution at pH 7.6 containing 0.02% sodium azide, is filtered through a 0.22 μfilter and stored at 4° C. Approximately 10 mg of extruded polymer depot containing peptide is placed in two small vials and 2 ml of the buffer solution added. The vials are then capped and stored in a water bath at 37° C. for a month. At suitable time points over a month, three 0.6ml aliquots of release medium are removed from each vial and either analysed by HPLC or stored frozen in an HPLC vial at -18° C. prior to analysis by HPLC. 1.8 ml of the buffer solution is added to each vial containing the depot to replace the release medium that has been removed at each time point.
The average amount of intact peptide in the release medium at each time point is determined by HPLC using duplicate sample injections by comparing the area of the peptide peak in the release media with the area of the peptide peak from standard buffer solutions of peptide at known concentrations. The approximate average amount of peptide degradation products in the release media at each time point is determined by HPLC by comparing the area of additional new peaks in the release media with the area of the peptide peak from standard buffer solutions of peptide at known concentrations and assuming the extinction coefficient has not changed. The average cumulative in vitro release profile of intact peptide and total peptide (intact peptide and peptide degradation products) is determined from the amounts of intact peptide and peptide degradation products in the release medium at each time point. Preferred peptides of the present invention show minimal degradation on in vitro release and thus show total peptide degradation products of less than 10% and preferably less than 5% of total peptide after a month of in vitro release into Mcllvaine's buffer solution at pH 7.6 at 37° C.

The format of data set [2] is physicochemical. The settings on record: for aqueous stability at pH3: pH 3. How it is done: A typical procedure for measuring the stability of a peptide derivative of the present invention is as follows, in which, to minimize microbial contamination and degradation, all equipment that is used to prepare peptide solutions is sterilized in an autoclave and all material transfers carried out in a Class II laminar flow cabinet. Approximately 20 ml of Mcllvaine's citric acid-phosphate buffer solution at pH 3 or 7.6 containing 0.02% sodium azide is filtered into a 50 mL bottle using a sterile 0.22 μm filter unit and a 20 ml syringe. Approximately 1.2 mg of peptide is accurately weighed in a capped vial. Using a sterile pipette tip, sufficient buffer solution is added to the peptide in the vial to give a peptide concentration of 0.1 mg/ml. The vial is capped and shaken to dissolve the peptide. Using a sterile pipette tip, aliquots of approximately 1 ml of the peptide solution are transferred to 10 HPLC vials, which are then capped. 5 vials are stored at -18 and 37° C. The area of the peptide peak for the solution is determined by HPLC using appropriate standards initially and after storage at -18 and 37° C. for 1, 2, 3 and 4 weeks, using a fresh vial at each time point with duplicate sample injections. The percentage of peptide remaining after storage at 37° C. at each time point is determined from the ratio of the area of the peptide peak at each time point to the initial area. Preferred peptide derivatives of the present invention have greater than 90%, and preferably greater than 95%, of peptide remaining after storage at 37° C. at both pH 3 and 7.6.

The format of data set [3] is physicochemical. As for the experimental part: Typical procedures for measuring the level of degradation of a peptide of the present invention are as follows:
Prenaration of extruded polymer depot formulation of peptide
About 20 mg of peptide is accurately weighed and sufficient polymer (50/50% molar poly(D,L-lactic acid/glycolic acid) copolymer of approximate weight average molecular weight 20kD and approximate polydispersity of 1.7 as determined by size exclusion chromatography relative to polystyrene standards) added to produce an approximate 20% w/w mixture. This is dissolved in […] glacial acetic acid to produce an approximate 10% w/v solution. The solution is freeze dried and the resulting freeze dried product is stored under vacii, prior to use.
About 100 mg of freeze dried material is loaded into the barrel of a small laboratory extruder and the plunger pushed down to consolidate the sample. The extruder is heated to between 90 and 95° C. and held at this temperature for 10 minutes before the freeze dried material is extruded under presure to give a cylindrical extrudate of approximately 1 mm in diameter.
Analysis of peptide content of extruded polymer depot formulation of peptide
Two approximate 5 mm lengths of extruded polymer depot containing peptide are accurately weogjed amd eacj dosspved 1 ml of anhydride-free glacial acetic acid in separate 25 ml bolumertic flasks. After about 1.5 hours the volume of each is made up to 25 ml with distilled water, causing the polymer to precipitate. The solids are filtered off using a 0.5 μm Millex PTFE filter and the solutions, A, collected. […]
Each standard is filtered through a 5 μm Millex PTFE filter and an aliquot of filtrate, together with aliquots of the solutions A, analysed by HPLC using duplicate sample injections. The peptide content of the extruded polymer depot formulation of peptide is calculated from the concentration of peptide in solutions A, which is determined by comparing the area of the peptide peak in solutions A with the area of the peptide peak from the standard solutions.
This is another data set of the same source.

Results on three substances are retold here after patent US6087336A, “Peptide derivatives useful in treating autoimmune diseases” (Zeneca Limited, priority 1996, dated 2000).

Turning to “Phv-Gap(Me)4 -Ala-Ala-Ala-Thr-IIb-Ala-Papa-NH2 [Example 16]”, the “degradation on release from depot formulation” value (“degradation on release” below) in data set [1] is given as “minimal degradation on release”. Moreover, in data set [2], the “aqueous stability at pH3” value is “good aqueous stability” and the “aqueous stability at pH 7.6” value is “good aqueous stability”. For the same substance, the “loss due to degradation on extrusion” value in data set [3] was “minimal loss due to degradation on extrusion”.
Regarding “Phv-Arg-Ala-Ala-Ala-Val-IIb-Ala-Pip-NH2 [Example 5]”, in data set [1], the “degradation on release” value is given as “minimal degradation on release”. Also, in data set [2], the “aqueous stability at pH3” value is “good aqueous stability” and the “aqueous stability at pH 7.6” value is reported as “good aqueous stability”. In data set [3], the “loss due to degradation on extrusion” value is reported as “minimal loss due to degradation on extrusion”.
Consider “Phv-Ala-Arg-Ala-IIb-Ala-Arg-Ala-Papa-NH2 [Example 23]”, for which the “degradation on release” value in data set [1] is recorded as “minimal degradation on release”. Moreover, in data set [2], the “aqueous stability at pH3” value is on record as “good aqueous stability” and the “aqueous stability at pH 7.6” value is recorded as “good aqueous stability”. In addition, in data set [3], the “loss due to degradation on extrusion” value is listed as “minimal loss due to degradation on extrusion”.
